Residue numbers refer to the chain shown, from its start. Values joined by “and” are separate entries in the source; they are usually repeats but may differ in a detail not shown here. Equal entries are not always repeated.

The target in experiment [1] is T1, human α1-GlyR (WT) expressed in HEK 293 cells (Homo sapiens, UniProt P23415).
T1 sequence (P23415 29-457): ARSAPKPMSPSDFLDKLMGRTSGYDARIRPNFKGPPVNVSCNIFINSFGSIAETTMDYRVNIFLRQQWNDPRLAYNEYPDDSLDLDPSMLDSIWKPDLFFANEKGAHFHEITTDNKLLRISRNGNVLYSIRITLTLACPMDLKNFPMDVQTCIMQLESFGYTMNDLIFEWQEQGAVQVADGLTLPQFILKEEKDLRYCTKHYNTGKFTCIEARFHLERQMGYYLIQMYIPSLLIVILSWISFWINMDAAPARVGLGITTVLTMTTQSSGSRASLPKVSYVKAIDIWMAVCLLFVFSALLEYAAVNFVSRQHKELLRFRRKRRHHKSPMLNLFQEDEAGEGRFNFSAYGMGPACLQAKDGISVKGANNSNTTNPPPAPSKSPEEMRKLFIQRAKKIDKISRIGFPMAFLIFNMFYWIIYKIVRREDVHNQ
The source says: (§1) Human α1-, α1R271Q-, α1R271L-, α1R271K and α1S267I-GlyR subunits were transiently transfected into human embryonic kidney cells (HEK 293, ATCC, Manassas, USA). The wild type α1-GlyR -cDNA was cloned in pCIS2 (Invitrogen, San Diego, USA) vector and provided by Prof. Heinrich Betz (Max-Planck-Institut für Hirnforschung, Frankfurt am Main, Germany). For the plasmid cDNA of the mutated α1R271Q-, α1R271L-, α1R271K- and α1S267I-GlyR the eukaryotic expression vector pcDNA1amp (Invitrogen, San Diego, USA), under the control of cytomegalovirus promoter, was used. For site-directed mutagenesis, single stranded template cDNA was synthesized from M13 origin of replication and the mutations of arginine residue (R) at position 271 to glutamine (R271Q), leucine (R271L) or lysine (R271K) and mutation of serine residue (S) at position 267 to isoleucine (S267I) were generated using standard procedures. […] Wild type and mutated α1-GlyR subunits efficiently form homomeric receptors in heterologous expression systems.
(§2) HEK 293 cells were cultured in medium containing HAMS’F-12 (Biochrom, Berlin, Germany), supplemented with 10% fetal bovine serum (FBS, Biochrom, Berlin, Germany), 100 U ml^–1 penicillin and 100μgml^–1 streptomycin (Gibco BRL, Life Technologies, Karlsruhe, Germany) at 37°C in a 5% CO2/ 95% air incubator. For transfection cells were suspended in a buffer containing 50mM K2HPO4 (Fluka BioChemika, Seelze, Germany), 20mMK-acetate (Sigma-Aldrich, Taufkirchen, Germany) and 25mM MgSO4 (Sigma-Aldrich, Taufkirchen, Germany) at pH 7.35. To visualize transfected cells, they were co-transfected with cDNA encoding for enhanced green fluorescent protein (EGFP) contained in the pEGFP-N1 expression vector (Clontech, Palo Alto, USA). The corresponding cDNA (5μg for the GlyR and 2.5μg for EGFP) was added to 400μl of the cell suspension and the mixture was rapidly transferred into the electroporation cuvette. For transfection we used an electroporation device by EquiBio (Kent, UK) and a 4mm aluminum electrode electroporation cuvette (Peqlab, Erlangen, Germany).
(§3) The phenol derivative 4-chloropropofol ([…]) was provided as pure substance by Prof. Paul M. O’Neill (University of Liverpool, England), prepared as light-protected 1M stock solution in ethanol (EtOH, J.T.Baker, Griesheim, Germany) and stored in glass vessels at −20°C.
(§4) Drug-containing vials were vigorously vortexed for 30min. Patch electrodes were filled with an intracellular solution of [mM] KCl 140, MgCl2 2, EGTA 11, HEPES 10, glucose 11, CaCl2 1 with pH 7.3, adjusted with 1 M KOH and a bath solution contained [mM] NaCl 162, KCl 5.31, NaHPO4 0.85, KH2PO4 0.22, HEPES 15, glucose 6.11, pH 7.4 adjusted with 1 M NaOH. Osmolarity of both solutions was set at 280–300 mOsmol.
(§5) Whole-cell experiments were performed at a holding potential of −30 mV with a mean seal resistance of 1 GΩ. […] A fast liquid filament switch technique was used for the application of the agonist, presented in pulses of 2 s duration every 20 s. The liquid filament switch technique is able to exchange the solution passing an outside-out patch or small whole-cells within 1–2 ms. We calculated flow rate of background solution through the chamber with 3,4 ml/min corresponding to 4% of maximal pump rate. With regard to the chamber volume of 100 μl the exchange solution time within the chamber was assessed to approximately […], dependent on cell size accordingly. Piezo-switch and small diameter capillary (ID 0.15 mm) within the measurement chamber promoted the millisecond solution exchange. […] The induced current (I) by this saturating control solution was defined as Icontrol. […] The stability of the seal was controlled during the complete experiment via control of the seal resistance. A variation of 10-20% of the basic value was regarded as tolerable.

Experiment [2] addresses T2, human α1R271Q-GlyR expressed in HEK 293 cells (Homo sapiens, UniProt P23415, R299Q).
T2 sequence (P23415 29-457 R299Q): T1 sequence (P23415 29-457) with R271Q
The note with it: R271Q.
Excerpt: as §1, §2, §3, §4, §5

The mark [3] stands for this setting: 10-90% of Imax, monoexponential fit.

As for `NCC(=O)O` [glycine], the “Current amplitude [% of mean WT current amplitude] ± SEM” value in experiment [1] was 100.0±26%; in experiment [2] it was 7.5±15%. The “nH ± SEM (Hill coefficient), glycine activation” value is 0.8 and 0.8±0.7 in experiment [1]; 1.0±0.6 in experiment [2]. Moreover, the “Rise time ± SEM” value is 3.7 ms and 3.7 ± 0.8 ms in experiment [1] (setting [3]); 673 ± 224 ms in experiment [2] (setting [3]). Also, the “Mean current amplitude ± SEM” value in experiment [1] (saturating glycine 1 mM) amounted to 1645±426 pA. Further, the current peaks result in experiment [2] (1 mM glycine) is on record as “less than 50 pA”. For the same compound, in experiment [2] (10-100 μM glycine), the “activation by low glycine concentrations” value is reported as “lacks activation”.
